# The source made the active and inactive calls.
# Columns and labels:
# [1] = Dose-response inhibition of insulin secretion in a rat insulinoma line at 5 mM glucose (AID 1117331); format: functional, cell-based; conditions: INS-1E
# [2] = P. falciparum late gametocyte killing, dose response, luminescence (AID 1117278); format: functional, cell-based;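 further: gametocytes exposed to compound for 24 hours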
# [3] = A cytotoxicity screen of small molecule inhibitors of the PhoP region in Salmonella typhi identified in the primary screen. [Related pubchem assays: 1850, 1864, 1985 ]; format: functional
# [4] = Jurkat T cell cytotoxicity, dose response, cytotoxicity control for P. falciparum gametocyte viability project, luminescence (AID 1117277); format: functional, cell-based;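 further: potency reflects loss of cellular ATP meaning fewer viable cells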
# Estrogen receptor beta = Estrogen receptor beta (Homo sapiens, UniProt Q92731);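 further: recombinant ER-beta bound to coactivator SRC1 peptide in presence of estradiol agonist; inhibitors block coactivator peptide binding and lower the FRET signal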
# [5] = target: T1, Microphthalmia-associated transcription factor (Homo sapiens, UniProt O75030); assay: TRPM1 promoter luciferase signal decrease, dose response, MITF inhibitor project, cell-based, SK-MEL-5, cherry-picked, set 3 (AID 493073); format: functional
# T1 sequence (O75030 whole entry): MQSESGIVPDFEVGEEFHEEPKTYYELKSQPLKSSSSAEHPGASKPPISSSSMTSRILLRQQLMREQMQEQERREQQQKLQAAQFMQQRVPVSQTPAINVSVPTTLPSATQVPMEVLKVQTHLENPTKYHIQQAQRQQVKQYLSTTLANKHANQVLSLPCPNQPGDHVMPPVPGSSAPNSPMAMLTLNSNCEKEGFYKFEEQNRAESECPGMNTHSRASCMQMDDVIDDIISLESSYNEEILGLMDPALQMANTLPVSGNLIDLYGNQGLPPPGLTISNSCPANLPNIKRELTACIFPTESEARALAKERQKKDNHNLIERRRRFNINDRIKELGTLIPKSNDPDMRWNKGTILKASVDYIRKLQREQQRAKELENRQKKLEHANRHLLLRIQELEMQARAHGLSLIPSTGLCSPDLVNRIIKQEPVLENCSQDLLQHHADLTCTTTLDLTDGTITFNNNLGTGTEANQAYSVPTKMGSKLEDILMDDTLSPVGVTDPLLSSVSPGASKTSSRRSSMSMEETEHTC
# [6] = target: T2, Bifunctional protein GlmU (Mycobacterium tuberculosis, UniProt P9WMN3); assay: Inhibitors of Mycobacterial Glucosamine-1-phosphate acetyl transferase (GlmU). Secondary screen.; design: species or system Mycobacterium tuberculosis H37Rv
# T2 sequence (P9WMN3 whole entry): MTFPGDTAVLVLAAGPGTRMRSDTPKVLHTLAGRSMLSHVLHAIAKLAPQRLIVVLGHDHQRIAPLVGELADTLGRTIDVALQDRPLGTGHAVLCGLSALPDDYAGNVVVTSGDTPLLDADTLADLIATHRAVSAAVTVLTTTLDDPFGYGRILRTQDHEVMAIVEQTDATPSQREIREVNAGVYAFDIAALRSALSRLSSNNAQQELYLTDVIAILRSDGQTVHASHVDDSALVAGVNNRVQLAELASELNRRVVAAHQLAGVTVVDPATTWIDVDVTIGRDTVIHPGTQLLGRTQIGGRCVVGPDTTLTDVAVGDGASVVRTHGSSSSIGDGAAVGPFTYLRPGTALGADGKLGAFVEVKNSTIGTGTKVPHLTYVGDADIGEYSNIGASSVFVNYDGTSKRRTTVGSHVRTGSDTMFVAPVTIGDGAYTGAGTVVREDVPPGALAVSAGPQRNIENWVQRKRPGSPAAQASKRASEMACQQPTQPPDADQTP
# [7] = target: T3, RNA-binding protein pos-1 (Caenorhabditis elegans, UniProt G5EF15); assay: inhibitors of POS-1/mex-3 RNA binding, dose response, biochemical, fluorescence polarization (AID 1964);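 further: purified POS-1 fused to maltose binding protein made in E. coli; potency of compounds blocking POS-1 binding to fluorescent RNA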
# T3 sequence (G5EF15 whole entry): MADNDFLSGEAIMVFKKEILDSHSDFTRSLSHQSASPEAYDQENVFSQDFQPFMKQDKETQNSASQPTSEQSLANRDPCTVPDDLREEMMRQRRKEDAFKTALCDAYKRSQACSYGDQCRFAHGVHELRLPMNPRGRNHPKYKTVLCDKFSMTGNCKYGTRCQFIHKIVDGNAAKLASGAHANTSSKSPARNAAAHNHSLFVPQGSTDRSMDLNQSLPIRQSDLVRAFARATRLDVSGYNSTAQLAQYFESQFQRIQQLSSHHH
# [8] = target: T4, Zinc finger protein mex-5 (Caenorhabditis elegans, UniProt Q9XUB2); assay: MEX-5/TCR-2 RNA interaction inhibitors, dose response, biochemical, C. elegans, fluorescence polarization (AID 1960)
# T4 sequence (Q9XUB2 whole entry): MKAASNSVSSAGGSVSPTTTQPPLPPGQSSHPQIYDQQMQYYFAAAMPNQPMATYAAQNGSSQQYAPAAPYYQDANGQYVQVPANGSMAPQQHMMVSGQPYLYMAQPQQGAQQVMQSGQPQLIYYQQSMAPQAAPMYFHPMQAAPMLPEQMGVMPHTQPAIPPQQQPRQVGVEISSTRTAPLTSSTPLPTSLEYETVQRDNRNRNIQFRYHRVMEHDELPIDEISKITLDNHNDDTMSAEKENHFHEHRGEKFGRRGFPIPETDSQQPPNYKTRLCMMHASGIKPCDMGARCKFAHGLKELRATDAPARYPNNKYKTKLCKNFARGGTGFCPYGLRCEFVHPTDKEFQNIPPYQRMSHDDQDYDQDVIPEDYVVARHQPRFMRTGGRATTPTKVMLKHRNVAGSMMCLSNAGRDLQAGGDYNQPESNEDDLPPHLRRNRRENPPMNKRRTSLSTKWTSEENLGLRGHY
# [9] = target: T5, Polyadenylate-binding protein 1 (Homo sapiens, UniProt P11940); assay: PABP1 MLLE–PAM2 binding inhibitor potency, dose response, biochemical, fluorescence polarization, FITC-PAM2 peptide (AID 602259); format: functional; conditions: read-out: IC50_Mean
# [10] = target: T6, Apoptotic protease-activating factor 1 (Homo sapiens, UniProt O14727); format: functional
# T6 sequence (O14727 whole entry): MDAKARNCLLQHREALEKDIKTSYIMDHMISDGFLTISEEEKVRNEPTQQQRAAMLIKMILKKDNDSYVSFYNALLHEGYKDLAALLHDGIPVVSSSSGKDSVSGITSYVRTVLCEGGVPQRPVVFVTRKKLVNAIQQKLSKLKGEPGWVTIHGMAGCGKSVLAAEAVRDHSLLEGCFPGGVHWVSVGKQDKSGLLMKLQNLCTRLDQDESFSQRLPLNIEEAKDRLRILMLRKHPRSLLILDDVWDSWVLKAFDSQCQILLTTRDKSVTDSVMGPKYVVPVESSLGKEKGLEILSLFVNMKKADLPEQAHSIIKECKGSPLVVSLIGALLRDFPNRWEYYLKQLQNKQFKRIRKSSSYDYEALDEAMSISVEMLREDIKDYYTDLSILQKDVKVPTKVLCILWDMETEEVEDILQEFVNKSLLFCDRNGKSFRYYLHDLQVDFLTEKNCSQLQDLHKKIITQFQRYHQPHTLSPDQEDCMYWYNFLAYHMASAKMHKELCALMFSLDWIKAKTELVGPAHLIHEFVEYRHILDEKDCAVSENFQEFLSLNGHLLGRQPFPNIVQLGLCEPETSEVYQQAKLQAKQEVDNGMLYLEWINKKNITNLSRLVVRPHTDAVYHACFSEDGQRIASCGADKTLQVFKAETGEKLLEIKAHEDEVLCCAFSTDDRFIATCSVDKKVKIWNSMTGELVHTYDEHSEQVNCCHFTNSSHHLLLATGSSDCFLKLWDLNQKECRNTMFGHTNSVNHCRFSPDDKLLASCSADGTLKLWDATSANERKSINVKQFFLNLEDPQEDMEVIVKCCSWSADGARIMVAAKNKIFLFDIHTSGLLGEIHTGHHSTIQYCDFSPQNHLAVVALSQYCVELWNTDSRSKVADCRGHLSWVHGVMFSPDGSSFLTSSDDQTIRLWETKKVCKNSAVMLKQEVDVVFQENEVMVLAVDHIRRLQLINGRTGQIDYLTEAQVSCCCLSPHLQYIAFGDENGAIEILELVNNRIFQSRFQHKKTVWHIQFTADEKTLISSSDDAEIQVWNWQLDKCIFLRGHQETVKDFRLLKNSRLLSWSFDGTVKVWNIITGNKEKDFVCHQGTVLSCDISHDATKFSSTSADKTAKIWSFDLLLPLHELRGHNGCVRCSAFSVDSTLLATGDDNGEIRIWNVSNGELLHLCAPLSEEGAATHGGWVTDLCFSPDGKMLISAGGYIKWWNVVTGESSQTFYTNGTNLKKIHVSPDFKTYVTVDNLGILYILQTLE
# Nonstructural protein 1 = Nonstructural protein 1 (Influenza A virus, UniProt Q194T2); format: functional, Influenza A virus (A/California/07/2009(H1N1))
# Caspase-9 = target: T7, Caspase-9 (Homo sapiens, UniProt P55211); assay: caspase-9 enzyme inhibition, dose response, selectivity assay for caspase-6 inhibitor project, biochemical, fluorescence, plate reader, cherry-picked samples (AID 743293)
# T7 sequence (P55211 whole entry): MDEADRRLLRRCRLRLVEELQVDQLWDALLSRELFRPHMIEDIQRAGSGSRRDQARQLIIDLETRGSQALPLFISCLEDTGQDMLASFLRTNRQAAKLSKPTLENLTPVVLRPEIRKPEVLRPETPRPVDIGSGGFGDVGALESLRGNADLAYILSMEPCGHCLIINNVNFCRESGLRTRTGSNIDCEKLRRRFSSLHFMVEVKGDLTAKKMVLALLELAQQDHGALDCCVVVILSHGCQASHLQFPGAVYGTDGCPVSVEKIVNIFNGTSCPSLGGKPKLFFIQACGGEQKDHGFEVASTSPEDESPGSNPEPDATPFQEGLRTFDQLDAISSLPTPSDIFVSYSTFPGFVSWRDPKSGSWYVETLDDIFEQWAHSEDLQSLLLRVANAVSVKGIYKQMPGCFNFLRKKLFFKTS
# [11] = target: T5, Polyadenylate-binding protein 1; assay: PABP1 MLLE–PAM2 interaction inhibitors, dose response, miRNA deadenylation inhibitor project, biochemical, fluorescence polarization, Cy5-PAM2 peptide, secondary (AID 602260); format: functional; conditions: read-out: IC50_Mean
# Caspase-6 = target: T8, Caspase-6 (Homo sapiens, UniProt P55212); assay: human caspase-6 inhibitors, dose response, biochemical, VEID-R110 fluorescence, cherry-pick (AID 720632)
# T8 sequence (P55212 whole entry): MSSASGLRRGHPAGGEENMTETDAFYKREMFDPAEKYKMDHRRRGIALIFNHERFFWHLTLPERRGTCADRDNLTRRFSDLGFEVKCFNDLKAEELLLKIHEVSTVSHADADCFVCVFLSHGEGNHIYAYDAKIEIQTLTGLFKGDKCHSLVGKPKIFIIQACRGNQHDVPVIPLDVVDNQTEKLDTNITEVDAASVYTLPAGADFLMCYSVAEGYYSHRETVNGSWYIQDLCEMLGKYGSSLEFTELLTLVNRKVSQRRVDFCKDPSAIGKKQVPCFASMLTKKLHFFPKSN
# Caspase-8 = Caspase-8 (Homo sapiens, UniProt Q14790); assay: caspase-8 inhibition counter-screen, dose response, selectivity assay for caspase-6 inhibitor project, biochemical, Z-IETD-R110 fluorescence, cherry-picked samples (AID 743294)
# Cytochrome P450 1A2 = target: T9, Cytochrome P450 1A2 (Homo sapiens, UniProt P05177);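 further: PubChem cytochrome P450 panel assay, CYP1A2 panel member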
# T9 sequence (P05177 whole entry): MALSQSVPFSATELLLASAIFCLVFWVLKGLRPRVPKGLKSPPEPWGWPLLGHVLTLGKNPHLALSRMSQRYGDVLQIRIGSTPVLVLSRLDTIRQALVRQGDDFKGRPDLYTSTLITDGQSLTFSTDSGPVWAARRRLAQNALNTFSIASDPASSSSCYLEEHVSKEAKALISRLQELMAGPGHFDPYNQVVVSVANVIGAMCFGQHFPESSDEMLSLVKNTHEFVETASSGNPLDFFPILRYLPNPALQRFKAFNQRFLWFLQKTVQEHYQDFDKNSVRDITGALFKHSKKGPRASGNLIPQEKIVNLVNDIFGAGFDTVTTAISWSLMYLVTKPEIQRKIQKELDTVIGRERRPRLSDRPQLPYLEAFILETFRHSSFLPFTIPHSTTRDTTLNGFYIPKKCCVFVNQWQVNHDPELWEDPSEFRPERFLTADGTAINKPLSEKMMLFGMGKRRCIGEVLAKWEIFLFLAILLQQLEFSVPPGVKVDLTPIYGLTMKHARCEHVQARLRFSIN
# Cytochrome P450 2D6 = Cytochrome P450 2D6 (Homo sapiens, UniProt P10635);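 further: CYP2D6 member of a cytochrome P450 panel assay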
# Cytochrome P450 2D6, sequence (P10635 whole entry): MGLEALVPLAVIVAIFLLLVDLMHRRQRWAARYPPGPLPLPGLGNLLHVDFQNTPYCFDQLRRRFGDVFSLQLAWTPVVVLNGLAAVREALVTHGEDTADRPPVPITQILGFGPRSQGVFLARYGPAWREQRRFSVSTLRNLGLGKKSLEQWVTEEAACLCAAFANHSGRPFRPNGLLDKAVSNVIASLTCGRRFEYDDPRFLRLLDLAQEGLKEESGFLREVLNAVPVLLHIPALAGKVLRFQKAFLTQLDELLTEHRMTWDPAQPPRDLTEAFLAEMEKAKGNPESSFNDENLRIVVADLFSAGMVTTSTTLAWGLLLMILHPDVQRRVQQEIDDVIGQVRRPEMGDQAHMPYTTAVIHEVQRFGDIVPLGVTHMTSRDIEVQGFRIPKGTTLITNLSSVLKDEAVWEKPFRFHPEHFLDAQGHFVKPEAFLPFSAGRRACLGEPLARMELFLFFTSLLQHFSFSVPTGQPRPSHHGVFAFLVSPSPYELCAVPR
# T5 sequence (P11940 whole entry): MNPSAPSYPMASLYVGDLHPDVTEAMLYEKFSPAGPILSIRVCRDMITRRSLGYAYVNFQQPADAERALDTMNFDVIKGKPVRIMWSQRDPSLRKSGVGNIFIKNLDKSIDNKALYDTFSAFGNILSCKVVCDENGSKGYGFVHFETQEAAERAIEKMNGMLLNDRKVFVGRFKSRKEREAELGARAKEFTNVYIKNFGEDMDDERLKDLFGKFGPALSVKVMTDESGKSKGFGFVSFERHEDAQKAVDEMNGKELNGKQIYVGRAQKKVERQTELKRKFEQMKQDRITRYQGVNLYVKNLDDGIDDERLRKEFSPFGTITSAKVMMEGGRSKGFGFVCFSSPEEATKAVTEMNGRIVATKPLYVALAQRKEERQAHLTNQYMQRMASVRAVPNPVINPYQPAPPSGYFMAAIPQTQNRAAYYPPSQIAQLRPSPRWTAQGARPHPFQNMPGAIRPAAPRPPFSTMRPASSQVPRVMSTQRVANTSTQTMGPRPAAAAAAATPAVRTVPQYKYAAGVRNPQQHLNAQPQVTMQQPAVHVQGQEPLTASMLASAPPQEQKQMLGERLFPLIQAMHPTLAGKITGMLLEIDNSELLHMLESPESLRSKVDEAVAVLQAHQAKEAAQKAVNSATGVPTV
# Nonstructural protein 1, sequence (Q194T2 whole entry): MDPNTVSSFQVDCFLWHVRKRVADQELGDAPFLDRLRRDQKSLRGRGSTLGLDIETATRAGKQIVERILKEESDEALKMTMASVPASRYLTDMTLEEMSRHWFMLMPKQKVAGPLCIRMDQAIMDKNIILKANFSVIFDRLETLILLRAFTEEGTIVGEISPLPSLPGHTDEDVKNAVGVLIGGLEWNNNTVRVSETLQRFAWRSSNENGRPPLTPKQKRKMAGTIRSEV
# Caspase-8, sequence (Q14790 217-374 limits assumed): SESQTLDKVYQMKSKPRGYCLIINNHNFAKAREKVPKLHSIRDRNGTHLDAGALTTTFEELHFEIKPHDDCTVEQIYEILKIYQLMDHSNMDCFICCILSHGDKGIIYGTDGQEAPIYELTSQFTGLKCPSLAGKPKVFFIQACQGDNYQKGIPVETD
# Caspase-8, sequence (Q14790 385-479 limits assumed): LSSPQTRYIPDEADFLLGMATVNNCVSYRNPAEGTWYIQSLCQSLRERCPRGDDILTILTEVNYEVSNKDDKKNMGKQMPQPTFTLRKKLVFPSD
# Estrogen receptor beta, sequence (Q92731 whole entry): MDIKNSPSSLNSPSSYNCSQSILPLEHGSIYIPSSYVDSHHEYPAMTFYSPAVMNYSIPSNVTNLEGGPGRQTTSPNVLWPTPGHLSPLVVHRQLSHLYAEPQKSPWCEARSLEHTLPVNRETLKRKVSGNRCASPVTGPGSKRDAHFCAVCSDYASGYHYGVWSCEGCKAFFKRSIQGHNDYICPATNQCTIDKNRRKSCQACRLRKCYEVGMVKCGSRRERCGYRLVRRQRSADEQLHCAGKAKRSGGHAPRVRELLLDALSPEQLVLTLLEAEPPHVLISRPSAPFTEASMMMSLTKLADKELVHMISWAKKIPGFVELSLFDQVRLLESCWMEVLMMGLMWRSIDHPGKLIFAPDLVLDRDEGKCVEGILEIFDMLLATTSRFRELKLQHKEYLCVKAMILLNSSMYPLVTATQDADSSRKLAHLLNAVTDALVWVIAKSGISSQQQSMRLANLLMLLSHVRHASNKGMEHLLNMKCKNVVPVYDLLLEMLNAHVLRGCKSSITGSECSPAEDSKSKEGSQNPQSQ
smiles,measurement,setting,value
CCC1=C(C)CN(C(=O)NCCc2ccc(S(=O)(=O)NC(=O)N[C@H]3CC[C@H](C)CC3)cc2)C1=O [GLIMEPIRIDE],IC50,[1],0.00406 µM (active)
CCOC(=O)CSc1nnc2c(n1)C1(C)CCC2C1(C)C (centres undefined),IC50,[2],> 109 µM (inactive)
same,EC50,[3],> 50 µM (active)
same,IC50,[4],> 83.2 µM (inactive)
COC(=O)C(O)(c1ccc(N(C)C(=O)OC(C)C)cc1)C(F)(F)F (centres undefined),IC50,Estrogen receptor beta,> 50 µM (not active)
Cn1c(SCC(=O)N2CCCCC2)nnc1-c1ccc(S(=O)(=O)N2CCOCC2)cc1,IC50,[2],> 109 µM (inactive)
same,IC50,[4],> 83.3 µM (inactive)
Cc1nn(-c2ccccc2Cl)c(Cl)c1/C=N/Nc1cccc(C(=O)O)c1,AC50,[5],5.5 µM (active)
same,IC50,[6],137 µM (active)
COc1ccccc1N1C(=O)C(Cl)=C(Nc2ccccc2O)C1=O,EC50,[7],34.7 µM (active)
same,EC50,[8],8.19 µM (inconclusive)
same,IC50,[6],90.9 µM (active)
Oc1cc(NCCc2cccnc2)cc2cccnc12,IC50,[9],42.3 µM (inactive)
same,IC50,[10],18.4 µM (active)
same,IC50,Nonstructural protein 1,6.64 µM (active)
same,AC50,Caspase-9,> 70 µM (inactive)
same,IC50,[11],> 66 µM (inactive)
same,AC50,Caspase-6,2.89 µM (active)
same,AC50,Caspase-8,30.1 µM (active)
CC1CCN(C(=O)CSc2ccc(-c3ccc(F)cc3)nn2)CC1,IC50,[2],> 109 µM (inactive)
same,IC50,[4],> 83.3 µM (inactive)
CCN(CC)CCOc1ccc(Cc2ccccc2)cc1,AC50,Cytochrome P450 1A2,12.6 µM (inconclusive)
same,IC50,[1],> 33.3 µM (inactive)
same,AC50,Cytochrome P450 2D6,25.1 µM (inconclusive)
